The source made the active and inactive calls.
Assays:
[1] = test system: HT-1080; assay: HT1080 cell viability loss – fluorescence readout (AID 620); format: functional, cell-based; conditions: Homo sapiens
[2] = biological target: Luciferin 4-monooxygenase (Photinus pyralis, UniProt P08659); assay: Counter Screen for Luciferase-based Assay Positives. [Related pubchem assays: 620, 618, 411 ]
[3] = biological target: Ras and Rab interactor 1/Tyrosine-protein kinase ABL1 (Homo sapiens, UniProt P00519+Q13671); format: functional;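 also: biochemical TR-FRET dose-response test measuring inhibition of binding between Rin1 and Abl proteins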
[4] = biological target: Nonstructural protein 1 (Influenza A virus, UniProt Q194T2); format: functional, Influenza A virus (A/California/07/2009(H1N1))
[5] = biological target: T1, Histone-lysine N-methyltransferase NSD2 (Homo sapiens, UniProt O96028); format: biochemical
T1 sequence (O96028 whole entry): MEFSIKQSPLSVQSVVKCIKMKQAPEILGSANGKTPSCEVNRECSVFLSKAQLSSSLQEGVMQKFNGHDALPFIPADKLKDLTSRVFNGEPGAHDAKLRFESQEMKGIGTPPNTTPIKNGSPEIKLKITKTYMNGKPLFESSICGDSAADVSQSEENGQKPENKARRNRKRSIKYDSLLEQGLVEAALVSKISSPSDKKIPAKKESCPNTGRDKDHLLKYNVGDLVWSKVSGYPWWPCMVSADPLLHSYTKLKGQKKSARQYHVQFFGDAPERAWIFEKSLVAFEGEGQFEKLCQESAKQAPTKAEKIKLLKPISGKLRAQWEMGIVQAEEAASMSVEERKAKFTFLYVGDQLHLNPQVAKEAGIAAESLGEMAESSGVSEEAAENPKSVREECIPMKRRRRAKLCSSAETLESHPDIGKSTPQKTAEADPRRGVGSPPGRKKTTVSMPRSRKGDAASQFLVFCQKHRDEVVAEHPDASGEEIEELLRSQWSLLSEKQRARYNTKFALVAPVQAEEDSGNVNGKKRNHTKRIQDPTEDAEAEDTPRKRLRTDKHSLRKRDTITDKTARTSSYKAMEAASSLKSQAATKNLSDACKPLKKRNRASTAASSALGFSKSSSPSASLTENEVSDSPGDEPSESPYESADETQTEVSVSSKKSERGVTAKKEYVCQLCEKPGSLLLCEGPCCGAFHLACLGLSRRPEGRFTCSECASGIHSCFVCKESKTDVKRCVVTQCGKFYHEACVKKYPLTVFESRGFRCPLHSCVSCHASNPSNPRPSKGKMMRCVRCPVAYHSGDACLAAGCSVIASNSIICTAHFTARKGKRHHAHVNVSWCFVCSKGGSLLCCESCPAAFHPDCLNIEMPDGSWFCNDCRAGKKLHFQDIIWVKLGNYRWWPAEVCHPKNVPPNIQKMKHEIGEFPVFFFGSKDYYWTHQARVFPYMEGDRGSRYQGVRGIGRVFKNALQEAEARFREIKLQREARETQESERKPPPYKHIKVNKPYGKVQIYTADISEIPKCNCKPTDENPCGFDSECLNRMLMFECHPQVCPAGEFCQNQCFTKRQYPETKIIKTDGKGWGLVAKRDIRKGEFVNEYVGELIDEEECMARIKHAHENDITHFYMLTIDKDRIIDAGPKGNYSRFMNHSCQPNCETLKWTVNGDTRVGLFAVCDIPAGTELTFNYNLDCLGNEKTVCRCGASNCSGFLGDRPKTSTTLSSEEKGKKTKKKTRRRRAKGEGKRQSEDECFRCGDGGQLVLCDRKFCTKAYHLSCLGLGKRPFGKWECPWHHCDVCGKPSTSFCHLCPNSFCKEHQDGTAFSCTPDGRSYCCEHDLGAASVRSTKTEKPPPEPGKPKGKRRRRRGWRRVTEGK

[6] = biological target: Estrogen receptor beta (Homo sapiens, UniProt Q92731); assay: blockers of SRC-3 recruitment to ERβ – biochemical, ELISA, streptavidin-HRP readout, orthogonal assay, confirmation (AID 1060)
[7] = Trypanosoma cruzi growth suppression in host cells – NIH3T3 host cells, beta-gal luminescence, confirmation (AID 2044); format: functional, cell-based;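 also: intracellular parasites grown in NIH/3T3 mouse fibroblasts as host cells; luminescent beta-galactosidase reporter signal from transgenic T. cruzi replicating inside host cells; inhibitors lower the luminescence signal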
[8] = NIH3T3 cell viability loss – ATP luminescence, mouse fibroblasts, counter-screen, dose response (AID 2010); format: functional, cell-based;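 also: cells exposed to compound for about 90 hours before reading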
[9] = cells

Sequence of Estrogen receptor beta (Q92731 whole entry): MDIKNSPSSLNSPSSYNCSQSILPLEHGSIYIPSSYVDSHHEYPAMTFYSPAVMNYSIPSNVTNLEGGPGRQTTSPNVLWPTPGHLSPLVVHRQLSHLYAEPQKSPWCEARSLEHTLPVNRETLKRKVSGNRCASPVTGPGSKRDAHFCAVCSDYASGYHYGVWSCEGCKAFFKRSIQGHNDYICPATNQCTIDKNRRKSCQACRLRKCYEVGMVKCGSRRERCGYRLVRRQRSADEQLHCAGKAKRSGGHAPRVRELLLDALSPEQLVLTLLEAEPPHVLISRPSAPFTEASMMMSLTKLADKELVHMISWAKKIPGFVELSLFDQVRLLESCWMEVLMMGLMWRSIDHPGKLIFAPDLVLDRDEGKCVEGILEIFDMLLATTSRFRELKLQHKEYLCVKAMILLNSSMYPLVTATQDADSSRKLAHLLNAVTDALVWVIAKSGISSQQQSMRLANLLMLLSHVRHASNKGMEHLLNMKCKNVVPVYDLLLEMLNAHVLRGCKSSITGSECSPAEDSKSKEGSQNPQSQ
Sequence of Nonstructural protein 1 (Q194T2 whole entry): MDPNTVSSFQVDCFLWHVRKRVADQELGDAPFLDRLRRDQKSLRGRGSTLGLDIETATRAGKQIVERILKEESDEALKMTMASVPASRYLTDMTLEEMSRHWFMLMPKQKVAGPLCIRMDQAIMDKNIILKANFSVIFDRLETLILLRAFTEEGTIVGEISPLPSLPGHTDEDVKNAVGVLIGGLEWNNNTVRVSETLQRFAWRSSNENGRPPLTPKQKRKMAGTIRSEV
Sequence of Ras and Rab interactor 1/Tyrosine-protein kinase ABL1 (P00519 whole entry): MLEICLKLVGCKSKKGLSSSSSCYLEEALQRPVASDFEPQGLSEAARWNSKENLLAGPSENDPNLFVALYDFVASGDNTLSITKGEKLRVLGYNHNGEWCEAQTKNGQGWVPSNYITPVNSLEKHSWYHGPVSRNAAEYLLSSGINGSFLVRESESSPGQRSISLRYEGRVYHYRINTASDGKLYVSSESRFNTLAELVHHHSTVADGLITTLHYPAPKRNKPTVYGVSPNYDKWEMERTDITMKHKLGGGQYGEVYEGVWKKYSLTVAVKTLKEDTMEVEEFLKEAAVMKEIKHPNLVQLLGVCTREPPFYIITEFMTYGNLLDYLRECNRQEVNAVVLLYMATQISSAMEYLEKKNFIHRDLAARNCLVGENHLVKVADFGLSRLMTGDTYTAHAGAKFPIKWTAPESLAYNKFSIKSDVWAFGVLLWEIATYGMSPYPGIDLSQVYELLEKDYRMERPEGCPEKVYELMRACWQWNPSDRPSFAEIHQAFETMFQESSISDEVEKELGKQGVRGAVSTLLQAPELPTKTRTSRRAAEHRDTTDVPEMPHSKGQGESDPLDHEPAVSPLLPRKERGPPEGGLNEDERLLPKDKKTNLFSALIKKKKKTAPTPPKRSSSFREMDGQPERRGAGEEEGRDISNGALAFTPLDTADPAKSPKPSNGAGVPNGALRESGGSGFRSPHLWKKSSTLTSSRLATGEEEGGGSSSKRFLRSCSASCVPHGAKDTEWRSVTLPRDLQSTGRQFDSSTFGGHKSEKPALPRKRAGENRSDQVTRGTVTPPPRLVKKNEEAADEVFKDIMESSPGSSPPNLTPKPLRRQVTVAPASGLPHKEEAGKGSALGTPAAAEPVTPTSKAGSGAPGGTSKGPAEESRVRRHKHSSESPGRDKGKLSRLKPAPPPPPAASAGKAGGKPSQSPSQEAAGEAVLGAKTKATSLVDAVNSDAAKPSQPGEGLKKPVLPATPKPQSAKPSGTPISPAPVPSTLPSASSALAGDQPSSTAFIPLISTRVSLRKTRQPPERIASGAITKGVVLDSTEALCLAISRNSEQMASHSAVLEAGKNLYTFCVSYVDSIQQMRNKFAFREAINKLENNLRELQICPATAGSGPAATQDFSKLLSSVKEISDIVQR
Sequence of Ras and Rab interactor 1/Tyrosine-protein kinase ABL1 (Q13671 whole entry): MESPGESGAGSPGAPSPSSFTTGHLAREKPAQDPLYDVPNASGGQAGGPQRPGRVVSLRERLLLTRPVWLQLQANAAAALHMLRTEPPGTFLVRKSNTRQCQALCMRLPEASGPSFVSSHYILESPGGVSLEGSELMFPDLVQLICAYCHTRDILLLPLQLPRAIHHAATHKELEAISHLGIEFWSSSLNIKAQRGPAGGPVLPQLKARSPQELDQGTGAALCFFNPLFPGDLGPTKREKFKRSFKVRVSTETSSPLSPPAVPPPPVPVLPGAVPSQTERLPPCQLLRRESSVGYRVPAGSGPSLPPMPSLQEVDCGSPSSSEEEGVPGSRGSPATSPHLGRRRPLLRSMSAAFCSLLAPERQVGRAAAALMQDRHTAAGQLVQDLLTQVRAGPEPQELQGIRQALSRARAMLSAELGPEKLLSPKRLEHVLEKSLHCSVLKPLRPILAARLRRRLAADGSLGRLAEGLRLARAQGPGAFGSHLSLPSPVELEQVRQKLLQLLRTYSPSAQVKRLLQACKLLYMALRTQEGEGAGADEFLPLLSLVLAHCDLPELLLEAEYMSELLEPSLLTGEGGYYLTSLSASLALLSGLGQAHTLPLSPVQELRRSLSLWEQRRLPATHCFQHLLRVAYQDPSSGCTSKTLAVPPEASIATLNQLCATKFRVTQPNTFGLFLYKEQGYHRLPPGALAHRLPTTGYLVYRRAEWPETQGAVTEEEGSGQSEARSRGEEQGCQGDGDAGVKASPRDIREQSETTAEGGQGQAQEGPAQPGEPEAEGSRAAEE
Sequence of Luciferin 4-monooxygenase (P08659 whole entry): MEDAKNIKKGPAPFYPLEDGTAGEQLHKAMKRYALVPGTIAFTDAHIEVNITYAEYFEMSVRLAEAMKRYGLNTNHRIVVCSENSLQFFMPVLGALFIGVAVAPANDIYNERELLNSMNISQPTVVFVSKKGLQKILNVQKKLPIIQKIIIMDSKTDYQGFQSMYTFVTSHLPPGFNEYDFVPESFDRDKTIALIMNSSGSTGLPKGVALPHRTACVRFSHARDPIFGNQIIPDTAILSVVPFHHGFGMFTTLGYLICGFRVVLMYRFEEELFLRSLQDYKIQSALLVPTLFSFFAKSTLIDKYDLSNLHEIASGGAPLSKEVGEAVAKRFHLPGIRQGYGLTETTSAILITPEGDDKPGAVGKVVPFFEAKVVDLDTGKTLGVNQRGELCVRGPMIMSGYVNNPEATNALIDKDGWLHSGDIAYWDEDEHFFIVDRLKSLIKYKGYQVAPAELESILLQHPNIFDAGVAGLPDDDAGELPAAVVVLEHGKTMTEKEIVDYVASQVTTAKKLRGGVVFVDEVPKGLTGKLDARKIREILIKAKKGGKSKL

| Compound | IC50 [6] | EC50 [7] | EC50 [8] | EC50 [9] | also measured |
| --- | --- | --- | --- | --- | --- |
| O=C(CSc1nnc(-c2csc3c2CCCC3)o1)Nc1ccccc1 | – | – | – | – | EC50 [1]: > 50000 nM (not active); EC50 [2]: 4340 nM (active) |
| CC1NC(=O)NC1CCCCCC(=O)Nc1ccc(F)c(Cl)c1 (stereo not drawn) | – | – | – | – | IC50 [3]: 15 nM (active); IC50 [4]: 1160 nM (active); AC50 [5]: 343 nM (active) |
| CN1CCN(c2ccc(NC(=O)COc3ccccc3Cl)cc2)CC1 | 814 nM (not active) | – | – | – | – |
| N#Cc1c(NC(=O)CN2CCCCC2)sc2c1CCCC2 | 34.3 nM (not active) | – | – | – | – |
| CC1CN(CCOCCSc2ccc(Cl)cc2)CC(C)O1 (stereo not drawn) | – | < 100 nM (active) | > 60000 nM (not active) | 25 nM (active) | – |
| O=C(C1=C[C@H](C2CCCCC2)C[C@H](OCc2ccc(CO)cc2)O1)N1CCN(Cc2ccc3c(c2)OCO3)CC1 | – | < 100 nM (active) | > 60000 nM (not active) | 156 nM (active) | – |

— ChEMBL document CHEMBL1201862, “PubChem BioAssay data set” (2004)
